Results on one compound are retold here after patent US8318186B2, “Use of at least a fatty ester for preparing a composition designed to inhibit 5-α-reductase activity, in pharmacology, in particular dermatology, in cosmetics and as food additive” (Laboratoires Expanscience, priority 2000, dated 2012).

Structures are written as SMILES.

The experiment has as its target T1, 5α-reductase (Homo sapiens, UniProt P18405).
T1 construct: endogenous in cells; host or cells: DU145 prostate carcinoma cells (ATCC HTB 81)
T1 sequence (P18405 1-259): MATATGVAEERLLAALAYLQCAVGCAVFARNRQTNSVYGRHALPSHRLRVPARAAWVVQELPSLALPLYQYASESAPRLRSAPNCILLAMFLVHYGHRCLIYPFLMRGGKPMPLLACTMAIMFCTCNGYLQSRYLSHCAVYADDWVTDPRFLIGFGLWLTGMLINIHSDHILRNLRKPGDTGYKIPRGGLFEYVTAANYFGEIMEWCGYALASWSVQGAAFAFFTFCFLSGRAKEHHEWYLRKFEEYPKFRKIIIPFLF
Briefly: Inhibition of the 5α-reductase of DU145 cells: quantity of 5-dihydrotestosterone formed from testosterone (RIA). It counts as cell-based. As to the method:
The prostatic cells DU145 are derived from a tumor line obtained from a prostate carcinoma (ATCC No. HTB 81). The MEM medium (ref. 0410265), the glutamine and the gentamycin are from Gibco. The fetal calf serum (FCS) is from DAP and is used decomplementized ([…] at 56° C.). The plastics serving for the culture (dishes and plates) are from Costar. The testosterone is from Sigma.
A stock solution in ethanol at 10 mg/ml is prepared from each of the products tested.
The concentration range used for the experiments is the following: 0, 5, 10, 50, 100 and 500 micrograms/ml. (Dilution performed in the culture medium).
The volume of extract added per well being 20 microliters/well, the solutions to be prepared are concentrated 50×.
A stock solution of testosterone at 10 mM is prepared in ethanol. At the time of its use, this solution is diluted 1:1 000 in the culture medium and 10 microliters are added per well.
The prostatic cells DU145 are cultured at 37° C., 5% Co2 in an MEM medium containing glutamine (2 mM), gentamycin (50 micrograms/ml) and 10% FCS. Their subculture rate is 1:10.
Before starting the experiment, the cells are placed in culture in 6-well plates at the rate of 2×10^5 DU145 cells per well/1 ml of medium containing only 1% FCS. The cells are maintained for 3 days at 37° C., 5% CO2. […]

Take `CCCCCCCC/C=C\CCCCCCCC(=O)OC` [Methyl oleate, methyl oleate]: the “5α-reductase inhibitory activity, in words” value (conclusions of Example 2) is given as “markedly less active than the methyl esters of avocado”. Further, the IC50 (testosterone 0.1 micromolar, 3 hours, read-out: IC 50, conversion of testosterone to 5-dihydrotestosterone by the DU 145 cells (converted)) was 1300 µM.
